Laboratory results reported in PMC6897945, “CytA, a reductase in the cytorhodin biosynthesis pathway, inactivates anthracycline drugs in Streptomyces” (Communications Biology, 2019).
Values after ≈ are worked out from the molar mass of the structure shown. Like-named read-outs stand apart in the source and are kept apart here.

Columns and labels:
B. thuringiensis BT01 = assay: Antibacterial activity, broth dilution MIC; format: cell-based; conditions: Bacillus thuringiensis
Procedure: (§1) The antibacterial activities of compounds 1–13 were assessed using twofold serial dilutions of antibacterial agents in MH broth, according to previously reported standard methods provided by Clinical and Laboratory Standards Institute (CLSI)[30]. These compounds were tested for their antibacterial activities against Bacillus subtilis BS01, Staphyloccocus aureus ATCC 29213, Staphyloccocus aureus 745524, Bacillus thuringiensis BT01, and Enterococcus faecalis ATCC 29212 using a broth dilution method.

B. subtilis BS01 = assay: Antibacterial activity, broth dilution MIC; format: cell-based; conditions: Bacillus subtilis
Procedure: as §1

[1] = test system: Staphylococcus aureus 745524; assay: Antibacterial activity, broth dilution MIC; format: cell-based
Procedure: as §1

[2] = test system: Staphylococcus aureus ATCC 29213; assay: Antibacterial activity, broth dilution MIC; format: cell-based
Procedure: as §1

E. faecalis ATCC 29212 = assay: Antibacterial activity, broth dilution MIC; format: cell-based; conditions: Enterococcus faecalis
Procedure: as §1

MDA-MB-468 cells = conditions: cited from earlier work
[3] = test system: A549 human lung cancer cell line; assay: Cytotoxic activity, MTT method; format: cell-based; conditions: A549, read-out: Cytotoxic activities IC50, A549
Excerpt: (§2) All data were obtained in triplicate and are presented as means.

[4] = Cytotoxic activity, MTT method; format: cell-based; conditions: human
Excerpt: as §2

[5] = test system: MDA-MB-468 human triple negative breast adenocarcinoma cell line; assay: Cytotoxic activity, MTT method; format: cell-based; conditions: MDA-MB-468, read-out: Cytotoxic activities IC50, MDA-MB-468
Excerpt: as §2

[6] = test system: MCF-7 human breast adenocarcinoma cell line; assay: Cytotoxic activity, MTT method; format: cell-based; conditions: MCF7, read-out: Cytotoxic activities IC50, MCF-7
Excerpt: as §2

[7] = test system: RKO human colorectal carcinoma cell line; assay: Cytotoxic activity, MTT method; format: cell-based; conditions: read-out: Cytotoxic activities IC50, RKO
Excerpt: as §2

[8] = test system: MDA-MB-231 human triple negative breast adenocarcinoma cell line; assay: Cytotoxic activity, MTT method; format: cell-based; conditions: MDA-MB-231, read-out: Cytotoxic activities IC50, MDA-MB-231
Excerpt: as §2

[9] = test system: HepG2 human hepatocellular carcinoma cell line; assay: Cytotoxic activity, MTT method; format: cell-based; conditions: HepG2, read-out: Cytotoxic activities IC50, HepG2
Excerpt: as §2

[10] = test system: HeLa human cervical carcinoma cell line; assay: Cytotoxic activity, MTT method; format: cell-based; conditions: read-out: Cytotoxic activities IC50, HeLa
Excerpt: as §2

CytA = assay: Enzyme kinetics of CytA (formation of deglycosylation products, anaerobic); format: biochemical, Streptomyces sp. SCSIO 1666; conditions: substrate of CytA; 0.5 μM CytA, 20 μM NADH, anaerobic
Procedure: Enzymatic reactions were carried out under anaerobic conditions in an anaerobic workstation (Don Whitley Scientific A45) containing a gas phase of N2/H2/CO2 (80:10: 10%, by vol.). ^1H, ^13C, and 2D (COSY, HMQC, HMBC and NOESY) NMR spectra were recorded at 25 °C with an Avance 700 MHz spectrometer instruments (Bruker). High-resolution mass spectra were obtained with a Maxis quadrupole-time-of-flight mass spectrometer (Bruker).
To validate the in vitro biochemical activities of CytA, we overexpressed and purified this enzyme as a soluble N-terminally His6-tagged protein from E. coli (Fig. 2a). Tris-Cl buffer was made O2 free by boiling, followed by cooling under N2 flow; NADH stock solution (dissolved in Tris-Cl), substrate stock solution (dissolved in DMSO), and enzyme solution (dissolved in Tris-Cl supplemented with 10% glycerin) were subjected to O2 eliminating process in the anaerobic workstations for at least two cycles (40 min for one cycle). CytA enzymatic activity was tested in 50 μL volume containing 50 mM Tris-Cl (pH 8.0), 25 μM substrate, 0.5 μM CytA, and 20 μM NADH, at 37 °C for 30 min. The reaction was quenched with the addition to 2 volumes MeOH. After centrifugation to remove protein, supernatants were analyzed with Agilent HPLC equipment using a Phenomenex Prodigy ODS column S5 (150 × 4.60 mm, 5 μ) and UV detection at 254 and 500 nm. Samples were eluted with a gradient elution of phase A containing 0.1% TFA in ddH2O and phase B containing 100% acetonitrile, at a flow rate of 1 mL/min.
Kinetic analyses of CytA with putative substrates 6–10, daunorubicin, doxorubicin, idarubicin, epirubicin and pirarubicin, involved a reaction volume of 20 μL consisting of 50 mM Tris-Cl (pH 8.0), 0.5 μM CytA, 20 μM NADH, […]
All assays were performed in triplicate and Km and Vmax values were calculated on the basis of curve fitting to the Michaelis-Menten equation: v = Vmax *[S]/(Km + [S]) (Supplementary Fig. 7).
For kinetics of CytA, Origin 9.0 (OriginLab Co.) was used to analyze on the basis of curve fitting to the Michaelis-Menten equation. Experiments were performed in triplicate independently. For antibacterial activity, experiments were performed in triplicate using 96-well plates.

[11] = test system: Streptomyces sp. SCSIO 1666 WT; assay: Growth inhibition zone assay; format: cell-based; conditions: WT strain, Fig. 3
Excerpt: (§3) We also noted that the ∆cytA mutant strain accumulated small amounts (80~100-fold lower than WT producer) of the immediate biosynthetic precursors of cosmomycins A (3) and B (4). The in vitro antimicrobial activities of compounds 1–13 against a panel of gram-positive bacteria (Table 2) provided some insight into the possible physiological significance of CytA-catalyzed reductions. Furthermore, we had observed that the ΔcytA mutant strain is clearly impaired relative to the WT strain upon addition of 6 or 7 as potential substrates. To evaluate this effect, we probed the sensitivity of Streptomyces sp. SCSIO 1666 to 6 and 7 in an inhibition zone assay (Fig. 3). A clear inhibition zone (16 mm) using the ΔcytA mutant plate was observed when supplemented with 1 μg of 6 or 7. […] That CytA production endows cosmomycin resistance provides strong evidence that the cytA gene directly confers Streptomyces. sp. SCSIO 1666 with the ability to protect itself from the effects by self-resistance to cosmomycins C and D.
(§4) Fig. 3 Sensitivity of Streptomyces sp. SCSIO 1666 toward cosmomycin C (6) and cosmomycin D (7) (1 μg) as determined by growth inhibition zone assays. […] TEXT PRINTED IN THE PICTURE: 6: ΔcytA mutant strain: 16 mm DOUBTS OF THE COPYIST ABOUT THIS PICTURE: 6, ΔcytA mutant strain: the small yellow print reads 16 mm, but it could be 15 or 18 mm / 6: the yellow double arrow marked 16 mm spans the zone around disc 6. The picture prints no measure name, so it may be the inhibition zone diameter or only a scale mark

[12] = test system: Streptomyces sp. SCSIO 1666 ΔcytA mutant strain; assay: Growth inhibition zone assay; format: cell-based; conditions: ∆cytA mutant strain, Fig. 3
Excerpt: as §3, §4

[13] = test system: five gram-positive bacteria; assay: Antibacterial activities, set of five gram-positive bacteria; format: cell-based; conditions: set of five gram-positive bacteria (Table 2)
Procedure: as §1

[14] = B. thuringiensis BT01, triplicate, read-out: MIC values, BT
[15] = B. subtilis BS01, triplicate, read-out: MIC values, BS
[16] = Staphylococcus aureus 745524, triplicate, read-out: MIC values, SA2
[17] = ATCC29213, Staphylococcus aureus ATCC 29213, triplicate, read-out: MIC values, SA1
[18] = ATCC29212, E. faecalis ATCC 29212, triplicate, read-out: MIC values, EF
[19] = Huvec-12 normal cell line, read-out: Cytotoxic activities IC50, Huvec-12
[20] = L02 normal cell line, read-out: Cytotoxic activities IC50, L02
[21] = Staphylococcus aureus, 745524, read-out: MIC values, SA2
[22] = Staphylococcus aureus, ATCC29213, read-out: MIC values, SA1
[23] = ATCC29212, read-out: MIC values, EF

CC[C@@]1(O)CCc2c(O)c3c(c(O)c2[C@H]1O[C@H]1C[C@H](N(C)C)[C@H](O[C@H]2C[C@H](O)[C@H](O[C@H]4CC[C@H](O)[C@H](C)O4)[C@H](C)O2)[C@H](C)O1)C(=O)c1cccc(O)c1C3=O [Compound 4, cosmomycin B]
MIC (B. thuringiensis BT01; [14]): 0.25 µg/mL (≈ 0.324 µM)
MIC (B. subtilis BS01; [15]): 0.25 µg/mL (≈ 0.324 µM)
MIC [1, 16]: 0.125 µg/mL (≈ 0.162 µM)
MIC [2, 17]: 0.25 µg/mL (≈ 0.324 µM)
MIC (E. faecalis ATCC 29212; [18]): 0.03 µg/mL (≈ 0.0389 µM)
cytotoxic activity against MDA-MB-468 cells (MDA-MB-468 cells): devoid of activity
IC50 [3]: 0.021 µM
IC50 [4, 19]: 0.41 µM
IC50 [4, 20]: 0.32 µM
IC50 [5]: 0.71 µM
IC50 [6]: 0.65 µM
IC50 [7]: 0.089 µM
IC50 [8]: 0.85 µM
IC50 [9]: 0.038 µM
IC50 [10]: 0.017 µM

CC[C@@]1(O)CCc2c(O)c3c(c(O)c2[C@H]1O[C@H]1C[C@H](N(C)C)[C@H](O)[C@H](C)O1)C(=O)c1cccc(O)c1C3=O [Compound 5, iremycin]
MIC (B. thuringiensis BT01; BT01, read-out: MIC values, BT): 16 µg/mL (≈ 30.3 µM)
MIC (B. subtilis BS01; BS01, read-out: MIC values, BS): 8 µg/mL (≈ 15.2 µM)
MIC [1, 21]: 8 µg/mL (≈ 15.2 µM)
MIC [2, 22]: 8 µg/mL (≈ 15.2 µM)
MIC (E. faecalis ATCC 29212; [23]): 8 µg/mL (≈ 15.2 µM)
IC50 [3]: 11.8 µM
IC50 [4, 19]: 13.5 µM
IC50 [4, 20]: 6.93 µM
IC50 [5]: 29.3 µM
IC50 [6]: 10.7 µM
IC50 [7]: 15.2 µM
IC50 [8]: 20.3 µM
IC50 [9]: 10.2 µM
IC50 [10]: 9.99 µM

CC[C@]1(O)Cc2c(O)c3c(c(O)c2[C@@H](O[C@H]2C[C@H](N(C)C)[C@H](O)[C@H](C)O2)C1)C(=O)c1c(O)cccc1C3=O [Compound 8, 10-decarbomethoxy-ε-rhodomycin]
MIC (B. thuringiensis BT01; [14]): 8 µg/mL (≈ 15.2 µM)
MIC (B. subtilis BS01; [15]): 8 µg/mL (≈ 15.2 µM)
MIC [1, 16]: 8 µg/mL (≈ 15.2 µM)
MIC [2, 17]: 4 µg/mL (≈ 7.58 µM)
MIC (E. faecalis ATCC 29212; [18]): 4 µg/mL (≈ 7.58 µM)
IC50 [3]: 6.24 µM
IC50 [4, 19]: 6.92 µM
IC50 [4, 20]: 19.8 µM
IC50 [5]: 16.8 µM
IC50 [6]: 21.1 µM
IC50 [7]: 3.28 µM
IC50 [8]: 7.65 µM
IC50 [9]: 1.99 µM
IC50 [10]: 1.31 µM
Km (CytA): 12.7 µM
kcat (CytA): 0.00283 s⁻¹

CC[C@@]1(O)C[C@H](O[C@H]2C[C@H](N(C)C)[C@H](O)[C@H](C)O2)c2c(O)c3c(c(O)c2[C@H]1C(=O)OC)C(=O)c1cccc(O)c1C3=O [Compound 9, ε-rhodomycin]
MIC (B. thuringiensis BT01; BT01, read-out: MIC values, BT): 4 µg/mL (≈ 6.83 µM)
MIC (B. subtilis BS01; BS01, read-out: MIC values, BS): 8 µg/mL (≈ 13.7 µM)
MIC [1, 21]: 4 µg/mL (≈ 6.83 µM)
MIC [2, 22]: 4 µg/mL (≈ 6.83 µM)
MIC (E. faecalis ATCC 29212; [23]): 8 µg/mL (≈ 13.7 µM)
IC50 [3]: 1.92 µM
IC50 [4, 19]: 7.21 µM
IC50 [4, 20]: 14 µM
IC50 [5]: 13.5 µM
IC50 [6]: 11.7 µM
IC50 [7]: 2.88 µM
IC50 [8]: 6.63 µM
IC50 [9]: 1.91 µM
IC50 [10]: 1.01 µM
Km (CytA): 8.5 µM
kcat (CytA): 0.0055 s⁻¹

CC[C@@]1(O)C[C@H](O)c2c(O)c3c(c(O)c2[C@H]1C(=O)OC)C(=O)c1cccc(O)c1C3=O [Compound 10, ε-rhodomycinone]
MIC (B. thuringiensis BT01; BT01, read-out: MIC values, BT): > 32 µg/mL
MIC (B. subtilis BS01; [15]): > 32 µg/mL
MIC [1, 16]: > 32 µg/mL
MIC [2, 17]: > 32 µg/mL
MIC (E. faecalis ATCC 29212; [18]): > 32 µg/mL
activity in growth inhibition zone assay [11]: inactive
activity in growth inhibition zone assay [12]: inactive
MIC [13]: > 32 µg/mL
IC50 [3]: 33.2 µM
IC50 [4, 19]: 15.3 µM
IC50 [4, 20]: 11.8 µM
IC50 [5]: 7.43 µM
IC50 [6]: 37.3 µM
IC50 [7]: 18.5 µM
IC50 [8]: > 50 µM
IC50 [9]: 17.2 µM
IC50 [10]: 20.2 µM
Km (CytA): 31.2 µM
kcat (CytA): 0.00233 s⁻¹

CC[C@@]1(O)CCc2c(O)c3c(c(O)c2[C@H]1C(=O)OC)C(=O)c1cccc(O)c1C3=O [Compound 11]
MIC (B. thuringiensis BT01; [14]): > 32 µg/mL
MIC (B. subtilis BS01; [15]): > 32 µg/mL
MIC [1, 16]: > 32 µg/mL
MIC [2, 17]: > 32 µg/mL
MIC (E. faecalis ATCC 29212; [18]): > 32 µg/mL
MIC [13]: > 32 µg/mL
